“Also recorded” adds a separate entry of the source. Like-named read-outs stand apart in the source and are kept apart here.
Assays:
[1] = test system: Glioblastoma multiforme (GBM) cells (T98-G); assay: Induction of apoptosis in cultured glioblastoma multiforme cells (microscopy); assay type: cell-based, human; conditions: for induction of apoptosis in GBM cells: T98-G cells, 50 and 100 μM, three days, compared to vehicle control
Description: FIG. 2 depicts a novel quinazoline derivative (Compound 1:6-Pyridin-2-yl -5,6-dihydro-benzo[4,5]imidazo[1,2-c]quinazoline) that induces apoptosis in Glioblastoma (GBM) cells. Cells were treated with different concentrations of Compound 1 (0.1, 1, 10, 50, 100μ) or vehicle (control).
(§1) Glioblastoma multiforme (GBM) cells (T98-G) were cultured in 6 wells for ˜90% confluent. Cells were treated with different concentrations of Compound 1 (0.1, 1, 10, 50, 100μ) or vehicle (control). […] Cell viability was tested by trypan blue exclusion assay.
(§2) GBM cell line T98-G (ATCC-CRL-1690) was obtained and authenticated by the American Type Culture Collection (Cat #30-2003; ATCC, Manassas, VA). Cells were cultured and maintained in low glucose Dulbecco's Modified Eagle Medium (DMEM) (Thermo Fisher Scientific) supplemented with 10% fetal bovine serum (FBS, Thermo Fisher Scientific) at 37° C. in a 5% CO2 humidified atmosphere and passed in less than 6 months. Human neuroblastoma cells. Human SH-SY5Y neuroblastoma cells (Sigma-Aldrich) were cultured in 45% F12K, 45% Modified Eagle Medium (MEM), supplemented with 10% FBS in tissue culture incubator (37° C., 5% CO2, 90% humidity). Primary skin fibroblasts. Primary skin fibroblasts were obtained from the Coriell Institute for Medical Research (Camden, NJ; Cat #AG09555; the Aging Cell Culture Repository of the National Institute on Aging) and maintained in DMEM with low glucose (Invitrogen, Grand Island, NY) supplemented with 10% FBS in 6-well culture plates (37° C., 5% CO2, 90% humidity) until reaching 90-100% confluence. In addition, cells were treated with either vehicle, 50, and 100 μM quinazoline derivatives and propentofylline. The condition of the cultured cells was monitored with an inverted cell culture microscope (Westover Digital AMID Model 2000, Westover Scientific, Bothell, WA), controlled by a computer, and images were captured with image acquisition software (Micron 2.0.0, Westover Scientific).

[2] = test system: Glioblastoma multiforme (GBM); conditions: cited from earlier work
GBM cells [3] = assay: Model tumor spheroid assay: GBM cell invasion in three-dimensional Matrigel matrix; assay type: cell-based, human; conditions: 3D Matrigel matrix; for invasive cells in multicellular spheroids: 50 μM
From the text: FIG. 5 depicts the Human glioblastoma multiforme (GBM) cell invasion in a three-dimensional Matrigel basement membrane. Model Tumor Spheroid assay: GBM cells form a spheroid tumor-like biological entity in three-dimensional space. Proliferation and invasion of GBM in 3-dimensional Matrigel matrix in 5 days (A) and 12 days (B). Arrows indicate invasive cells in model tumor spheroids. The proliferation and invasion of GBM in a three-dimensional Matrigel matrix have been studied for days. […] Arrows indicate invasive cells.
GBM cells were incubated in a previously prepared 3-dimensional Matrigel matrix. Multicellular spheroids were formed after three days of incubation. The mechanical properties of cell invasion of patient-derived primary glioblastoma cells have been studied recently in 3-D matrigel matric (Grundy et al., 2016). Cellular invasiveness was monitored in multicellular spheroids of GBM embedded in 3D matrigel matric (FIG. 5).

integrin β1 (CD29) = assay: Western blot of integrin β1 levels in GBM cells; assay type: cell-based, human; conditions: normalized with β-tubulin, similar concentrations
From the text: FIG. 6 depicts a novel quinazoline derivative (Compound 1:-Pyridin-2-yl -5,6-dihydro-benzo[4,5]imidazo[1,2-c]quinazoline) that decreases glioblastoma cell invasion by decreasing integrin β1 (CD29) levels. Intergrin β1 band decreased in Western blot analyses both in normal culture (A), and serum-free condition (B) by the treatment of compound 1. Propentofylline treatment produces reverse effects (A). Relative expression levels of integrin β1 is normalized with β-tubulin as a loading control in Western blot analyses. […] Standard Error of Mean (SEM) is calculated from three independent measurements.
Integrins have an important role to play in cell invasion in tumorigenic environments. […] We also compared the effectiveness of reducing β1 integrin level with propentofylline in the same concentration. […] Deletion of β1 integrin reduced tumorigenesis in in-vivo xenograft tumor growth animal model (Hou et al., 2016).
Reagents and antibodies: Propentofylline (molecular weight 306.366; [1-(5O-oxohexyl)-3-methyl-7-propylxanthine) was purchased from Sigma-Aldrich (St. Louis). Propentofylline and synthetic quinazoline derivatives were dissolved in DMSO (30-60 mM, depending on solubility). Aliquots were stored at −20 C. Stock solutions were dissolved in a culture medium at different concentrations just before each experiment. Rabbit monoclonal anti-Integrin beta 1 [CD29] antibody (Cat #04-1109) was purchased from Millipore (Temecula, CA). Anti-tubulin III antibody (Cat #79-720) was purchased from ProSci (Poway, CA). Antibody for PKCε (C-15) (Santa Cruz Biotechnology, Santa Cruz, CA; Cat No: sc-214) was used to detect PKCε and has been recommended for detection of PKCε of human origin by western blotting and immunofluorescence analysis by the manufacturer. Quinazoline derivatives were synthesized in the laboratory.

GBM cells [4] = conditions: 2012, cited from earlier work; for GBM cell invasion and survival: Dhruv et al., 2016, Jacob et al.
[5] = test system: human normal primary skin fibroblasts; assay: Toxicity to cultured normal primary skin fibroblasts; assay type: cell-based
Description: FIG. 8 depicts the non-toxicity of Compound 1.
Insignificant toxicity was found for the quinazoline derivative (Compound 1): One quinazoline derivative (Compound 1) was non-toxic to cultured normal primary skin fibroblasts isolated from healthy individuals (FIG. 8). After three days of continuous treatment by 100 μM Compound 1, there was no cell death.
as §2, with “Primary skin fibroblasts were obtained from the Coriell Institute for Medical Research (Camden, NJ; Cat #AG09555; the Aging Cell Culture Repository of the National Institute on Aging) and maintained in DMEM with low glucose (Invitrogen, Grand Island, NY) supplemented with 10% FBS in 6-well culture plates (37° C., 5% CO2, 90% humidity) until reaching 90-100% confluence. In addition, cells were treated with either vehicle, 50, and 100 μM quinazoline derivatives and propentofylline.” left out

[6] = test system: Glioblastoma multiforme (GBM) cells (T98-G); assay: Cell viability by trypan blue exclusion assay; assay type: cell-based, human; conditions: 50 and 100 μM, 3 days
Description: FIG. 3 depicts concentration dependence cell viability of human glioblastoma multiforme (GBM) cells by novel quinazoline derivative (Compound 1: 6-Pyridin-2-yl-5,6-dihydro-benzo[4,5]imidazo[1,2-c]quinazoline).
as §1
as §2, with “Primary skin fibroblasts were obtained from the Coriell Institute for Medical Research (Camden, NJ; Cat #AG09555; the Aging Cell Culture Repository of the National Institute on Aging) and maintained in DMEM with low glucose (Invitrogen, Grand Island, NY) supplemented with 10% FBS in 6-well culture plates (37° C., 5% CO2, 90% humidity) until reaching 90-100% confluence. In addition, cells were treated with either vehicle, 50, and 100 μM quinazoline derivatives and propentofylline.” left out

PKCε = target: T1, PKCε (Homo sapiens, UniProt Q02156); assay: PKCε activity (membrane/cytosol ratio) in neuroblastoma cells; assay type: cell-based; conditions: SHSY5Y cells
T1 construct: host or cells: SH-SY5Y human neuroblastoma cells
T1 sequence (Q02156 1-737): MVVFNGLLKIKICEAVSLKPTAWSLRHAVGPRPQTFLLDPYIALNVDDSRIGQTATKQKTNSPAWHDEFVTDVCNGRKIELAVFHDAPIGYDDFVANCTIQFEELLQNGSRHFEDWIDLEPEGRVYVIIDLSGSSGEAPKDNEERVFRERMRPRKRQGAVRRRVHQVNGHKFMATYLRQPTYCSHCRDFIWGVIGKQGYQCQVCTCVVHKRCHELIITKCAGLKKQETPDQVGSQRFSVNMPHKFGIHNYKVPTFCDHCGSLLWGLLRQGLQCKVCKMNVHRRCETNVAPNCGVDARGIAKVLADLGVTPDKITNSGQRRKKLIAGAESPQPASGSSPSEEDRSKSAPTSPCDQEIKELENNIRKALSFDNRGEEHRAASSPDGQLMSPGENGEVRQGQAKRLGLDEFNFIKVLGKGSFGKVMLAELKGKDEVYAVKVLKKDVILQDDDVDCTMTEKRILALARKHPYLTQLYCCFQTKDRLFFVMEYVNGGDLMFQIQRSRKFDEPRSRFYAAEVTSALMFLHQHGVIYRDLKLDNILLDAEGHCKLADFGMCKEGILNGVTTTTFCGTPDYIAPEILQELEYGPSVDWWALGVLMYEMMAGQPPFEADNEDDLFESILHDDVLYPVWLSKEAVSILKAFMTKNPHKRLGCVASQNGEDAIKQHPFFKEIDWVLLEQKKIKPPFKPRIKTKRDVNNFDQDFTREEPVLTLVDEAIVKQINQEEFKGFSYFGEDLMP
Description: FIG. 7 depicts how novel quinazoline derivative decreases oncogenic PKCε activity in neuroblastoma cells. C=concentration of PKCε in cytosol fraction, and M=concentration of PKCε in membrane fraction of cells. PKCε activity was measured as the ratio of the concentration in the membrane and cytosol fraction.
Novel quinazoline derivative decreases oncogenic PKCepsilon (PKCε) activity in neuroblastoma cells (FIG. 7). We tested whether novel quinazoline derivatives can decrease oncogenic PKCε activity. […] Oncogenic PKCε is a survival kinase for GBM cells (Okhrimentko et al., 2005).
GBM cell line T98-G (ATCC-CRL-1690) was obtained and authenticated by the American Type Culture Collection (Cat #30-2003; ATCC, Manassas, VA). Cells were cultured and maintained in low glucose Dulbecco's Modified Eagle Medium (DMEM) (Thermo Fisher Scientific) supplemented with 10% fetal bovine serum (FBS, Thermo Fisher Scientific) at 37° C. in a 5% CO2 humidified atmosphere and passed in less than 6 months. Human neuroblastoma cells. […] The condition of the cultured cells was monitored with an inverted cell culture microscope (Westover Digital AMID Model 2000, Westover Scientific, Bothell, WA), controlled by a computer, and images were captured with image acquisition software (Micron 2.0.0, Westover Scientific). […]

c1c[nH]c(-c2nc3ccccc3c3nc4ccccc4n23)c1 [Compound 7, 6-(1H-Pyrrol-2-yl)-benzo[4,5]imidazo[1,2-c]quinazoline]
induction of apoptosis in GBM cells [1]: caused significant apoptosis

Bevacizumab: FDA-approved immunotherapeutic agent; therapeutic antibody (Genentech)
progression-free survival at 6 months ([2]; GBM patients, % of cases): 36% | overall survival ([2]; GBM patients): 9.3 months | gastrointestinal perforation ([2]; human, in vivo): 1.5-5.4% | hypertension ([2]; human, in vivo): 5.5-11.4% | proteinuria ([2]; human, in vivo): 2.7-11.4% | thromboembolic events ([2]; human, in vivo): 3.2-11.9% | wound healing complications ([2]; human, in vivo): 0.8-3.3% | patients who developed therapeutic resistance ([2]; phase II clinical trial (Vredenburgh et al., 2007)): 40%

Cn1nnc2c(C(N)=O)ncn2c1=O [TMZ, temozolomide]
common side effects ([2]; patients): bone marrow suppression, genotoxic, and teratogenic

CCCn1cnc2c1c(=O)n(CCCCC(C)=O)c(=O)n2C [Propentofylline, 1-(5O-oxohexyl)-3-methyl-7-propylxanthine]
invasive cells in multicellular spheroids (GBM cells [3]): Invasive cells were sprouting outside of the spheroid | induction of apoptosis in GBM cells [1]: did not induce apoptosis | integrin β1 expression level (integrin β1 (CD29)): not able to reduce β1 integrin level | integrin β1 expression level (integrin β1 (CD29); listed as propentofylline): significantly increases integrin β1 expression levels; also recorded: increased expression levels of β1-Integrin | GBM cell invasion and survival (GBM cells [4]): decreasing GBM cell invasion and survival | GBM cell invasion and survival (GBM cells [4]; listed as propentofylline): decreased GBM cell invasion; also recorded: inhibits GBM survival | induction of apoptosis in GBM cells (GBM cells [4]; Jacobs et al.): ineffective inducing apoptosis

c1ccc(C2Nc3ccccc3-c3nc4ccccc4n32)nc1 (centres unmarked) [Compound 1, 6-Pyridin-2-yl-5,6-dihydro-benzo[4,5]imidazo[1,2-c]quinazoline]
invasive cells in multicellular spheroids (GBM cells [3]): no invasive cells | potency for reducing tumor size and cell invasion compared with Propentofylline (GBM cells [3]; 5th day): more potent than Propentofylline in terms of reducing tumor size and cell invasion; also recorded: more potent inhibitor of GBM cell invasion | potency for inducing apoptosis / inhibiting GBM survival compared with Propentofylline ([1]; GBM cells, FIG. 4): more potent for inhibiting GBM survival than Propentofylline; also recorded: more potent than Propentofylline to induce apoptosis | induction of apoptosis in GBM cells [1]: induced significant apoptosis; also recorded: induce apoptosis; also recorded: caused significant apoptosis | cell death of primary skin fibroblasts ([5]; 100 μM, three days of continuous treatment): no noticeable cell death | toxicity to primary human skin fibroblasts ([5]; cultured normal primary skin fibroblasts from healthy individuals): non-toxic | cell viability (trypan blue exclusion) [6]: Cell viability was reduced | PKCε activity (ratio of concentration in membrane and cytosol fraction) (PKCε): significantly decreased the PKCε activity | integrin β1 expression level (integrin β1 (CD29)): significantly decreases integrin β1 expression level; also recorded: decreasing β1 integrin (CD29) levels; also recorded: significantly reduced expression levels of β1-Integrin

Source: patent US20250177400A1, “METHODS OF THERAPEUTICS DEVELOPMENT OF GLIOBLASTOMA MULTIFORME BY QUINAZOLINE DERIVATIVES AND THEREOF” (priority 2023, published 2025)
